Source: patent publication US20250368687A1, “SHORT SYNTHETIC PEPTIDES AND USES THEREOF IN THE TREATMENT OF ENTEROVIRUS INFECTION” (CITY UNIVERSITY OF HONG KONG, priority 2024, published 2025)

Assays:
Type in all cases: cell-based
[1] = system: EV-A71; test: Virus titration (TCID50); settings: TCID50, RD cells (FIG. 10K)
Description: FIGS. 10A-10K. Peptide S78 inhibited EV-A71 replication and propagation. (FIG. 10A) RD cells were pre-treated with peptides S78 or for 2 hours and infected with EV-A71 at the MOI of 10 for 6 hours. Cell lysates were collected for western blot assay. Hsp27 phosphorylation on Ser 15, 78, 82 were detected by specific antibodies. β-Actin were detected as internal control. (FIG. 10B) Densitometric analysis of FIG. 9A. (FIG. 10C) HEK 293T cells were pre-treated with peptides S78 or S78A at the concentration of 25 μM for 2 hours and then co-transfected with Hsp27-WT plasmid (800 ng), pIRES reporter plasmid (200 ng) and 2A^pro-expressing plasmid or 2AC110A-expressing plasmid (200 ng) for 24 h, then the luciferase activity was measured. (FIG. 10D-10E) RD cells were treated with peptides S78 or S78A and then infected with EV-A71. EV-A71 VP1 were detected. (FIG. 10F) RD cells were treated with peptides and then infected with EV-A71 at the MOI of 1 for 12 hours. The EV-A71-induced CPE was captured. (FIG. 10G-10H) Intracellular viral RNA was extracted and quantified by qPCR. (FIG. 10I) Densitometric analysis FIG. 9D-E. (FIG. 10J) RD cells were treated with peptides S78 or and then infected with EV-A71 at the MOI of 1 for 12 hours. Extracellular viral RNA was extracted and quantified by qPCR. (FIG. 10K) Viral titration was calculated by TCID50. […] Data are expressed as mean ±SD.
FIGS. 11A-11G Inhibition of EV-A71 Protein Translation and Viral Reproduction by peptide S82A. (FIG. 11A) HEK 293T cells were pre-treated with peptides NC, S78, S78A, S82A, or S78-3A at the concentration of 25 μM for 2 hours and then co-transfected with Hsp27-WT plasmid (800 ng), pIRES reporter plasmid (200 ng) and 2A^pro-expressing plasmid for 24 h, then the luciferase activity was measured. […] Intracellular viral RNA was extracted and quantified by qPCR. […] EV-A71 VP1 were detected. β-Actin was detected as an internal control. (FIG. 11F) Densitometric analysis of the EV-A71 VP1 level in FIG. S7C-E was quantified and normalized with β-Actin using ImageJ. […] Viral titration was calculated. […] Data are expressed as mean ±SD. […]

[2] = system: 2Apro-induced relocalization of Hsp27 and hnRNP A1 in RD cells; test: Immunofluorescence colocalization assay of 2Apro-induced relocalization of Hsp27 and hnRNP A1; settings: 25 μM for 2 hours, transfected with 2Apro for 24 hours
Description: FIGS. 9A-9B Peptide S78 blocks the 2A^pro-induced relocalization of Hsp27 and hnRNP A1. RD cells on the coverslips were treated with peptides (S78, S78A, and S82A) at the concentration of 25 μM for 2 hours, and then transfected with 2A^pro for 24 hours. The cells were fixed and stained with anti-Hsp27and anti-hnRNPAI, followed by Alexa Fluor 488-conjugated anti-rabbit antibody and Alexa Fluor 594-conjugated anti-mouse antibody. The nuclei were stained with Hoechst. The images were captured by Nikon A1HD25 Confocal Microscope. The JACoP-plugin of the extended ImageJ version Fiji was used to compute the M1 colocalization coefficient, in which (FIG. 9A) is M1 colocalization coefficient for the fraction of Hsp27 in Hoechst and (FIG. 9B) is the M1 colocalization coefficient for the fraction of hnRNP A1 in Hoechst. Statistical analyses were carried out using Student's t-test. *: p<0.05, **: p<0.01, ***: p<0.001. Data are expressed as mean ±SD.
The cells on coverslips were infected with EV-A71 at the multiplicity of infection (MOI) of 40 for 6 hrs to assure the high efficiency of viral infection. Then the cells were fixed by 4% paraformaldehyde for 20 min, permeabilized by 0.5% Triton X-100 for 15 min, blocked with 5% BSA for 2 hrs, and stained by incubation with anti-Hsp27 (GTX101145) and anti-hnRNP A1 (sc-32301) antibody, then with Alexa Fluor 488 conjugated anti-rabbit antibody and Alexa Fluor 594 conjugated anti-mouse antibody respectively. After washing four times with 0.2% Triton X-100, the nuclei were stained with DAPI or Hoechst for 5 min. The images were captured by a Nikon A1HD25 High speed and Large Field of View Confocal Microscope. Colocalization analysis was conducted using the JACoP-plugin of the extended ImageJ version Fiji. The M1 colocalization coefficient was computed to illustrate the colocalization levels of Hsp27 and hnRNP A1 overlapped with Hoechst.

[3] = system: EV-A71 VP1; test: Western blot of EV-A71 VP1 level in RD cells; settings: for EV-A71 VP1 protein level (in words): indicated concentrations
Description: FIGS. 10A-10K. Peptide S78 inhibited EV-A71 replication and propagation. (FIG. 10A) RD cells were pre-treated with peptides S78 or for 2 hours and infected with EV-A71 at the MOI of 10 for 6 hours. Cell lysates were collected for western blot assay. Hsp27 phosphorylation on Ser 15, 78, 82 were detected by specific antibodies. β-Actin were detected as internal control. (FIG. 10B) Densitometric analysis of FIG. 9A. (FIG. 10C) HEK 293T cells were pre-treated with peptides S78 or S78A at the concentration of 25 μM for 2 hours and then co-transfected with Hsp27-WT plasmid (800 ng), pIRES reporter plasmid (200 ng) and 2A^pro-expressing plasmid or 2AC110A-expressing plasmid (200 ng) for 24 h, then the luciferase activity was measured. (FIG. 10D-10E) RD cells were treated with peptides S78 or S78A and then infected with EV-A71. EV-A71 VP1 were detected. (FIG. 10F) RD cells were treated with peptides and then infected with EV-A71 at the MOI of 1 for 12 hours. The EV-A71-induced CPE was captured. (FIG. 10G-10H) Intracellular viral RNA was extracted and quantified by qPCR. (FIG. 10I) Densitometric analysis FIG. 9D-E. (FIG. 10J) RD cells were treated with peptides S78 or and then infected with EV-A71 at the MOI of 1 for 12 hours. Extracellular viral RNA was extracted and quantified by qPCR. (FIG. 10K) Viral titration was calculated by TCID50. The Statistical analyses were carried out using Student's t-test. *: p<0.05, **: p<0.01, ***: p<0.001. Data are expressed as mean ±SD.
FIGS. 11A-11G Inhibition of EV-A71 Protein Translation and Viral Reproduction by peptide S82A. (FIG. 11A) HEK 293T cells were pre-treated with peptides NC, S78, S78A, S82A, or S78-3A at the concentration of 25 μM for 2 hours and then co-transfected with Hsp27-WT plasmid (800 ng), pIRES reporter plasmid (200 ng) and 2A^pro-expressing plasmid for 24 h, then the luciferase activity was measured. (FIG. 11B) RD cells were pre-treated with peptides NC at indicated concentrations for 2 hours and infected with EV-A71 at the MOI of 1 for 9 hours. Intracellular viral RNA was extracted and quantified by qPCR. (FIG. 11C-11E) RD cells were treated with peptides NC, S82A, or S78-3A at indicated concentrations for 2 hours and then infected with EV-A71 at the MOI of 1 for 9 hours. Cell lysates were collected for western blot assay. EV-A71 VP1 were detected. β-Actin was detected as an internal control. (FIG. 11F) Densitometric analysis of the EV-A71 VP1 level in FIG. S7C-E was quantified and normalized with β-Actin using ImageJ. (FIG. 11G) RD cells were treated with peptides S78, S78A, S82A, or S78-3A at the concentration of 25 μM for 2 hours and then infected with EV-A71 at the MOI of 0.1 for 24 hours. Viral titration was calculated. The Statistical analyses were carried out using Student's t-test. *: p<0.05, **: p<0.01, ***: p<0.001. Data are expressed as mean ±SD.
After cell lysis in Nonidet-P40 (NP-40) buffer, the cell lysates were centrifuged, and the concentration was determined by Bradford assay (Bio-Rad). 20 μg of protein was used for 12% SDS-PAGE and transferred onto polyvinylidene fluoride membrane (PVDF) (GE, MA, USA). Following 5% bovine serum albumin (BSA) blocking for 1 hrs, the membrane was incubated with antibodies (1:1000) against Hsp27 (sc-13132), pHsp27-Ser15 (ab76313), pHsp27-Ser78 (ADI-SPA-523), pHsp27-Ser82 (ab155987), VP1 (GTX132339), β-Actin (sc-47778), hnRNP A1 (sc-32301), or GAPDH (sc-32233) overnight in 4° C. After secondary antibodies (HRP-conjugated Affinipure Goat Anti-Mouse IgG(H+L), SA00001-1, and HRP-conjugated Affinipure Goat Anti-Rabbit IgG(H+L), SA00001-2) incubation for 1 hrs, the protein was visualized with a chemiluminescence reagent (PerkinElmer, MA, USA) on Bio-Rad Chemidoc Imaging System. The protein bands were quantified by densitometry with ImageJ if necessary.

Row | Substance | decrease of viral titer [1] [folds] | 2Apro-induced relocalization of Hsp27 and hnRNP A1 [2] | reduction of VP1 level (densitometric assay) ([3]; 50 μM) | EV-A71 VP1 protein level (in words) [3] | EV-A71 VP1 protein level at 50 μM (in words) ([3]; 50 μM)
1 | Ac-RKKRRQRRRAYSRALARQLSS-NH2 [S78A] | 50 | still showed a certain cellular redistribution | about 60% | much weaker | 
2 | Ac-RKKRRQRRRYSREANQPKPSPKRESGEE-NH2 [NC, reference compound] |  |  |  | no effect | 
3 | Ac-RKKRRQRRRAYSRALSRQLSS-NH2 [S78] | 450 | almost completely blocked | over 99% | dramatically decreased | almost undetectable level
